Patent US9034368B2 (PUREPHARM INC., priority 2002, dated 2015)

Assays:
[1] = tested on: excessive sweating; conditions: patient 3: topical application (1% pads and 1% spray)
[2] = Hay 1982; roll-on solution, distilled water; concentrations above 2%; cited from earlier work
[3] = tested on: hyperhidrosis and gustatory sweating; conditions: cited from earlier work

C[N+]1(C)CCC(OC(=O)C(O)(c2ccccc2)C2CCCC2)C1 (stereo not shown) [glycopyrrolate]
side effects [1]: not experienced any side effects
crystallisation from solution [2]: Glycopyrrolate crystalized out
efficacy of topical concentration ([3]; 0.1% concentration, Hays 1978): ineffective
efficacy of solution versus cream ([3]; Hay 1982, 2 & 4% HEB cream base): Solution worked better than
relief of sweating ([3]; May 1989, 0.5 & 2.0% roll-on, 2.0% cream, almost all patients): total or partial relief. Placebo
efficacy ([3]; Seukeran 1998, 0.50% aqueous solution): Worked well
concentration after which mild side effects begin to present themselves ([3]; topical, Hays 1978): > 4%
